Reference: BindingDB's records for doi:10.1021/jm970459c (Cambridge Neuroscience, 1998)
Where a name gives a salt, the structure may show the parent alone.

biological target: Sigma receptor (Cavia porcellus); assay: Binding assay for the sigma receptor sites is performed by utilizing [3H]N,N-di-o-tolylguanidine ([3H]DTG) and guinea pig brain membrane suspensions

Compared with `CCc1cccc(N(C)C(N)=Nc2cc(Br)cc([S+](C)[O-])c2Br)c1` (configuration not stated), `CCc1cccc(N(C)C(N)=Nc2cc(Br)cc(CC)c2Br)c1` [N'-(2,5-Dibromo-3-ethyl-phenyl)-N-(3-ethyl-phenyl)-N-methyl-guanidine; hydrochloride] is 49-fold lower in IC50: 1950 nM for the first, 40 nM for the second.

`CCc1cccc(N(C)C(N)=Nc2cc(SC)cc(CC)c2Br)c1` and `CCc1cccc(N(C)C(N)=Nc2cc(CC)cc(CC)c2Br)c1` [N'-(2-Bromo-3,5-diethyl-phenyl)-N-(3-ethyl-phenyl)-N-methyl-guanidine; hydrochloride] are within 1.5-fold of each other in IC50: 299 nM for the first, 203 nM for the second.

`CCc1cccc(N(C)C(N)=Nc2cccc(Cl)c2Cl)c1` [N'-(2,3-Dichloro-phenyl)-N-(3-ethyl-phenyl)-N-methyl-guanidine; hydrochloride] and `CCc1cccc(N(C)C(N)=Nc2ccccc2Cl)c1` [N'-(2-Chloro-phenyl)-N-(3-ethyl-phenyl)-N-methyl-guanidine; hydrochloride] are within 1.5-fold of each other in IC50: 97 nM for the first, 72 nM for the second.

First: CCc1cccc(N(C)C(N)=Nc2cc(Br)cc(S(C)(=O)=O)c2Br)c1 [N'-(2,5-Dibromo-3-methanesulfonyl-phenyl)-N-(3-ethyl-phenyl)-N-methyl-guanidine; hydrochloride]
Second: CCc1cccc(N(C)C(N)=Nc2cc(Br)cc(C(F)(F)F)c2Br)c1 [N'-(2,5-Dibromo-3-trifluoromethyl-phenyl)-N-(3-ethyl-phenyl)-N-methyl-guanidine; hydrochloride]
The IC50 of the first is 15-fold higher: 3380 nM for the first, 224 nM for the second.

Compared with `CCc1cccc(N(C)C(N)=Nc2cc(Br)cc(OC(F)(F)F)c2Br)c1` [N'-(2,5-Dibromo-3-trifluoromethoxy-phenyl)-N-(3-ethyl-phenyl)-N-methyl-guanidine; hydrochloride], `CCc1cccc(N(C)C(N)=Nc2cc(CC)cc(OC(F)(F)F)c2Br)c1` [N'-(2-Bromo-5-ethyl-3-trifluoromethoxy-phenyl)-N-(3-ethyl-phenyl)-N-methyl-guanidine; hydrochloride] is 2.3-fold higher in IC50: 113 nM for the first, 261 nM for the second. The first is the more potent here.

`CCc1cccc(N(C)C(N)=Nc2cc(Cl)cc(SC)c2Cl)c1` [N'-(2,5-Dichloro-3-methylsulfanyl-phenyl)-N-(3-ethyl-phenyl)-N-methyl-guanidine; hydrochloride] and `CCc1cccc(N(C)C(N)=Nc2cc(CC)cc(SC)c2Cl)c1` [N'-(2-Chloro-5-ethyl-3-methylsulfanyl-phenyl)-N-(3-ethyl-phenyl)-N-methyl-guanidine; hydrochloride] are within 1.5-fold of each other in IC50: 130 nM for the first, 178 nM for the second.

First: CCc1cccc(N(C)C(N)=Nc2cc(Cl)cc(C(F)(F)F)c2Cl)c1 [N'-(2,5-Dichloro-3-trifluoromethyl-phenyl)-N-(3-ethyl-phenyl)-N-methyl-guanidine; hydrochloride]
Second: CCc1cccc(N(C)C(N)=Nc2cc(CC)cc(C(F)(F)F)c2Cl)c1 [N'-(2-Chloro-5-ethyl-3-trifluoromethyl-phenyl)-N-(3-ethyl-phenyl)-N-methyl-guanidine; hydrochloride]
The IC50 of the first is 1.8-fold lower: 110 nM for the first, 200 nM for the second.

`CCc1cccc(N(C)C(N)=Nc2cc(Cl)ccc2Cl)c1` [N'-(2,5-Dichloro-phenyl)-N-(3-ethyl-phenyl)-N-methyl-guanidine; hydrochloride] and `CCc1cccc(N(C)C(N)=Nc2ccc(Cl)c(Cl)c2)c1` [N'-(3,4-Dichloro-phenyl)-N-(3-ethyl-phenyl)-N-methyl-guanidine; hydrochloride] are within 1.5-fold of each other in IC50: 29 nM for the first, 39 nM for the second.

First: CCc1cccc(N(C)C(N)=Nc2cc(C(F)(F)F)cc(CC)c2Br)c1 [N'-(2-Bromo-3-ethyl-5-trifluoromethyl-phenyl)-N-(3-ethyl-phenyl)-N-methyl-guanidine; hydrochloride]
Second: CCc1cccc(N(C)C(N)=Nc2cc(C(F)(F)F)cc(CC)c2Cl)c1 [N'-(2-Chloro-3-ethyl-5-trifluoromethyl-phenyl)-N-(3-ethyl-phenyl)-N-methyl-guanidine; hydrochloride]
The IC50 of the first is 1.8-fold higher: 205 nM for the first, 115 nM for the second. The second is the more potent here.

`CCc1cccc(N(C)C(N)=Nc2cc(CC)cc(SC)c2Br)c1` [N'-(2-Bromo-5-ethyl-3-methylsulfanyl-phenyl)-N-(3-ethyl-phenyl)-N-methyl-guanidine; hydrochloride] and `CCc1cccc(N(C)C(N)=Nc2cc(CC)cc(C(F)(F)F)c2Br)c1` [N'-(2-Bromo-5-ethyl-3-trifluoromethyl-phenyl)-N-(3-ethyl-phenyl)-N-methyl-guanidine; hydrochloride] are within 1.5-fold of each other in IC50: 180 nM for the first, 221 nM for the second.

First: CCc1cccc(N(C)C(N)=Nc2ccccc2Br)c1 [N'-(2-Bromo-phenyl)-N-(3-ethyl-phenyl)-N-methyl-guanidine; hydrochloride]
Second: CCc1cccc(N(C)C(N)=Nc2ccccc2C(C)C)c1 [N-(3-Ethyl-phenyl)-N'-(2-isopropyl-phenyl)-N-methyl-guanidine; hydrochloride]
The IC50 of the first is 2.9-fold lower: 125 nM for the first, 362 nM for the second.

`CCc1cccc(N(C)C(N)=Nc2cc(CC)cc(CC)c2Cl)c1` [N'-(2-Chloro-3,5-diethyl-phenyl)-N-(3-ethyl-phenyl)-N-methyl-guanidine; hydrochloride] and `CCc1cccc(N(C)C(N)=Nc2cc(CC)cc(CC)c2F)c1` [N'-(3,5-Diethyl-2-fluoro-phenyl)-N-(3-ethyl-phenyl)-N-methyl-guanidine; hydrochloride] are within 1.5-fold of each other in IC50: 112 nM for the first, 113 nM for the second.

`CCc1cccc(N(C)C(N)=Nc2cc(C)cc(CC)c2Cl)c1` [N'-(2-Chloro-3-ethyl-5-methyl-phenyl)-N-(3-ethyl-phenyl)-N-methyl-guanidine; hydrochloride] and `CCc1cccc(N(C)C(N)=Nc2cccc(Cl)c2)c1` [N'-(3-Chloro-phenyl)-N-(3-ethyl-phenyl)-N-methyl-guanidine; hydrochloride] are within 1.5-fold of each other in IC50: 45 nM for the first, 44 nM for the second.

First: CCc1cccc(N(C)C(N)=Nc2cccc(Br)c2)c1 [N'-(3-Bromo-phenyl)-N-(3-ethyl-phenyl)-N-methyl-guanidine; hydrochloride]
Second: CCc1cccc(N(C)C(N)=Nc2cccc(SC)c2)c1 [N-(3-Ethyl-phenyl)-N-methyl-N'-(3-methylsulfanyl-phenyl)-guanidine; hydrochloride]
The IC50 of the first is 4.1-fold lower: 40 nM for the first, 164 nM for the second.

Going from `CCc1cccc(N(C)C(N)=Nc2ccc(Cl)cc2)c1` [N'-(4-Chloro-phenyl)-N-(3-ethyl-phenyl)-N-methyl-guanidine; hydrochloride] to `CCc1cccc(NC(N)=Nc2cccc(Cl)c2)c1` [N-(3-Chloro-phenyl)-N'-(3-ethyl-phenyl)-guanidine; hydrochloride], the IC50 falls from 46 nM to 27 nM (1.7-fold).

`CCc1cccc(NC(N)=Nc2cccc(Cl)c2Cl)c1` [N-(2,3-Dichloro-phenyl)-N'-(3-ethyl-phenyl)-guanidine; hydrochloride] and `CCc1cccc(NC(N)=Nc2c(Cl)cccc2Cl)c1` [N-(2,6-Dichloro-phenyl)-N'-(3-ethyl-phenyl)-guanidine; hydrochloride] are within 1.5-fold of each other in IC50: 13 nM for the first, 14 nM for the second.

First: CCc1cccc(NC(N)=Nc2ccc(Cl)cc2Cl)c1 [N-(2,4-Dichloro-phenyl)-N'-(3-ethyl-phenyl)-guanidine; hydrochloride]
Second: CCc1cccc(NC(N)=Nc2cc(Cl)ccc2Cl)c1 [N-(2,5-Dichloro-phenyl)-N'-(3-ethyl-phenyl)-guanidine; hydrochloride]
The IC50 of the first is 3.1-fold higher: 37 nM for the first, 12 nM for the second. The second is the more potent here.

Compared with `CCc1cccc(N(C)C(=N)N(C)c2cc(Br)ccc2Br)c1` [N-(2,5-Dibromo-phenyl)-N'-(3-ethyl-phenyl)-N,N'-dimethyl-guanidine; hydrochloride], `CCc1cccc(NC(N)=Nc2cccc(Br)c2)c1` [N-(3-Bromo-phenyl)-N'-(3-ethyl-phenyl)-guanidine; hydrochloride] is 38-fold lower in IC50: 381 nM for the first, 10 nM for the second.

First: CCc1cccc(NC(N)=Nc2ccccc2CC)c1 [N-(2-Ethyl-phenyl)-N'-(3-ethyl-phenyl)-guanidine; hydrochloride]
Second: CCc1cccc(NC(N)=Nc2ccccc2C)c1 [N-(3-Ethyl-phenyl)-N'-o-tolyl-guanidine; hydrochloride]
The IC50 of the first is 1.7-fold higher: 19 nM for the first, 11 nM for the second. The second is the more potent here.

Going from `CCc1cccc(NC(N)=Nc2ccc(Cl)c(Cl)c2)c1` [N-(3,4-Dichloro-phenyl)-N'-(3-ethyl-phenyl)-guanidine; hydrochloride] to `CCc1cccc(NC(N)=Nc2cc(Cl)cc(Cl)c2)c1` [N-(3,5-Dichloro-phenyl)-N'-(3-ethyl-phenyl)-guanidine; hydrochloride], the IC50 rises from 32 nM to 70 nM (2.2-fold).

Going from `CCc1cc(CC)cc(N=C(N)Nc2cccc(CC)c2)c1` [N-(3,5-Diethyl-phenyl)-N'-(3-ethyl-phenyl)-guanidine; hydrochloride] to `CCc1cccc(NC(N)=Nc2ccccc2C(C)C)c1` [N-(3-Ethyl-phenyl)-N'-(2-isopropyl-phenyl)-guanidine; hydrochloride], the IC50 rises from 8 nM to 21 nM (2.6-fold). The first is the more potent here.
